A short description of this series: particle size distribution by laser light scattering. Type of series: physicochemical. The note with it: volumetric, product of working example 1. An excerpt: The product is obtained in a particularly finely divided form with a narrow particle size distribution. The latter can, for example, be seen from the ratio of the D values, D99, D90, D50, (D10). The D value indicates the percentage of particles smaller than the diameter given as the respective D value. The percentage is given as index, i.e.: D90= . . . means “90% of the particles have a (volumetrically determined) diameter of less than . . . ”. The associated data are obtained by means of laser light scattering.
The particle size distribution of the zinc bisglycinate produced as described in working example 1 and shown in FIG. 2a was examined more closely by means of laser light scattering. The results are shown in graph form in FIG. 2c.

Consider `NCC(=O)[O-].NCC(=O)[O-].[Zn+2]` [zinc bisglycinate, bis(glycinato-N,O)zinc], for which the “D10 (10% of the particles have diameters of less than)” value turned out to be 0.86 μm, the “D50 (50% of the particles have diameters of less than)” value stood at 3.41 μm, the “D90 (90% of the particles have diameters of less than)” value is 6.82 μm and the “D99 (99% of the particles have diameters of less than)” value is 10.00 μm.

Values taken from patent US12398157B2, “Energy-efficient solvent-free method for producing metal chelates” (TECHNISCHE UNIVERSITAT CLAUSTHAL, priority 2017, dated 2025).
